Tests used:
guinea pigs [1] = tested on: guinea pigs
Method: Female Dunkin-Hartley guinea pigs (GP) were used (specific pathogen-free, 180-450 g, Charles River Laboratories, Saint-Constant, Canada) in accordance with standards established by the University of Alberta Health Sciences Animal Policy and Welfare Committee and Guidelines of the Canadian Council on Animal Care. All guinea pigs were allowed to adapt to the new environment for at least one week before physiologic studies. […] Airway function and inflammation were assessed four days after OVA challenge or 21 days after sensitization alone.
Guinea Pigs were anesthetized with urethane (1.5 g/kg i.p.), tracheostomized, and ventilated after paralysis with succinylcholine chloride (Sigma-Aldrich) (10 μg/kg/min, i.v.). Pulmonary inflation pressure (Ppi) was measured using (Powerlab, Adlnstruments, Colorado Springs, USA) as previously described^17. […] The resulting bronchoconstriction was recorded as increases in Ppi.
The results are expressed as mean and standard error of the mean (SEM) and standard deviation (SD) respectively. A P-value of 0.05 was considered significant.

guinea pigs [2] = test: Lung lavage total and differential cell counts; assay type: in vivo, guinea pig
Method: (§1) Animals were sacrificed with an overdose of urethane (3 gm/kg i.v.). Cytosmear for total and differential cell counts (Diff-Quik®, Baxter Healthcare Corp) were performed on lung lavage ^17. The lungs were removed, inflated and fixed in 3.7% formaldehyde for 24 hours. Airway sections were stained with 2% chromotrope 2R to determine the average number of eosinophils per 10 high power field (#/hpf) as previously described^20.
(§2) A P-value of 0.05 was considered significant.

[3] = Urine metabolite concentrations by 1H-NMR (Chenomx, PLS-DA); assay type: in vivo, guinea pig; settings: for urine Fumarate concentration / urine Glycolate concentration / urine Trimethylamine concentration: mean (STD) per title
Method: Regarding animal urine data: under anaesthesia, but before performing airway inflammatory measurements, urine samples (1.0-2.0 cc) were collected by trans-abdominal cystocentesis. Regarding human urine data: midstream urine samples were collected in standard 50 ml specimen containers and promptly placed in a freezer at the outpatient clinic (−20° C.).
Within 3 hours each the urine sample was moved to the −80° C. freezer at NANUC (National High Field NMR Centre), University of Alberta. To determine the NMR spectra, the samples were thawed in a biosafety fume hood and a […] aliquot was removed and placed in a 1.5 ml Eppendorff tube followed by the addition of […] of a reference buffer solution (4.9 mM DSS (disodium-2, 2-dimethyl 2-silapentane-5-sulphonate) and 100 mM imidazole in D2O, Sigma-Aldrich). Each sample was brought to a pH of 7.0 +/-0.1 using HCl and NaOH. An uncentrifuged aliquot of 600 μl was taken and transferred to a standard 5 mm glass NMR tube (Wilmad, N.J.). ^1H-NMR spectra were acquired on a 600 MHz Inova spectrometer (Varian Inc, Palo Alto, Calif.) equipped with a 5 mm triple-resonance (HCN) probe with z-axis gradient coil. One-dimensional ^1H-NMR spectra were collected at 25° C. with a tnnoesy pulse sequence (one-dimensional, three pulse NOESY, with a transmitter pre-saturation delay of 900 ms for water suppression during the pre-acquisition delay and 100 ms mixing time) and a spectral width of 7200 Hz. The time-domain data points were 64k complex points, acquisition time was 4s, 90° pulse was 6.8 μs, repetition time was 5 s, with four steady state scans, and 32 acquired scans per FID (Free Induction Decay). The data were apodized with an exponential window function corresponding to a line broadening of 0.5 Hz, zero-filled to 128 k complex points, and Fourier transformed^22.
Quantification of 50-70 easily identifiable metabolites involved in various relevant metabolic pathways was performed using Chenomx NMR Suite Professional software package Version 3.1 (Chenomx Inc., Edmonton, AB)^23. The software contains a database of known metabolites with their referenced spectral resonant frequencies or signatures. The software allows matching of these known resonant frequencies with the observed resonant frequencies of the collected spectra, enabling the qualitative and quantitative analysis of metabolites in urine NMR spectra (FIG. 1A). The methyl groups from DSS produce a resonant singlet, which served as internal standard for spectral chemical shifts (set to 0 ppm) and for quantification. The internal DSS signal was also utilized as the concentration reference (0.49 mM). To correct for dilution, metabolite concentrations were referenced against urinary creatinine^24. This method is capable of providing metabolite concentration accuracies in excess of 90%^23, 25.
To separate groups of animals or patients based on urine metabolite concentrations, the values of the 50-70 metabolite concentrations for each animal/child were log transformed and imported to SIMCA software (SIMCA-P 11, Umetrics, USA). […] To appreciate the impact of a lower concentration metabolite in the model, equal to the change in an abundant metabolite, the methods must detect the relative change in concentration. Thus, metabolite concentrations were mean-centered followed by unit variance scaling (or z-scoring). Thereafter, partial least squares discriminant analysis (PLS-DA) was performed (SIMCA-P 11). PLS-DA determines the relationship between the response vector Y (i.e. subject group) and the matrix X (concentration of each metabolite) by simultaneous projections of both Y and X spaces to a plane. Then seven fold internal crossvalidation was performed by dividing the data into seven parts (by default) and each 1/7th in turn was removed.

guinea pigs [4] = test: Eosinophil count in cartilaginous airways (histology); assay type: in vivo, guinea pig; settings: challengeddex vs challenged
Method: as §1, §2

With `NCCc1c[nH]cn1` [histamine] the “bronchoconstriction measured by increasing Ppi” value (guinea pigs [1]; histamine 1-20 μg/kg i.v.) was “dose-dependent bronchoconstriction”.

With `C[C@@H]1C[C@H]2[C@@H]3CCC4=CC(=O)C=C[C@]4(C)[C@@]3(F)[C@@H](O)C[C@]2(C)[C@@]1(O)C(=O)CO` [Dex, dexamethasone] the “total cells in lung lavage” value (guinea pigs [2]; challengeddex vs challenged) was “remained higher similar to challenge”, the “lymphocytes in lung lavage” value (guinea pigs [2]; challengeddex vs challenged, p<0.05) was “significantly lower” and the “total cell counts in lung lavage” value (guinea pigs [2]; controldex vs control and sensitized, dexamethasone 6.5 μg/kg i.p. daily for three days) was “no significant difference”. The “macrophage values in lung lavage” value (guinea pigs [2]; controldex vs control, p=0.03) was “higher compared with control”, the “bronchoconstriction response to histamine (Ppi)” value (guinea pigs [1]; challengeddex compared to challenged alone, dexamethasone 6.5 μg/kg i.p. 1 hour after challenge then daily for two days, p<0.05) was “diminished response” and the “urine 1-Methyl-Histamine concentration” value ([3]; Challenged/Dex group (n = 12)) was 0.044(0.002-0.055) mmol/mmol creatinine. The “urine 2-OH-Isobutyrate concentration” value ([3]; Challenged/Dex group (n = 12)) was 0.043(0.031-0.061) mmol/mmol creatinine, the “urine 2-Oxoglutarate concentration” value ([3]; Challenged/Dex group (n = 12)) was 0.006(0.005-0.012) mmol/mmol creatinine and the “urine 3-Methyl-Adipate concentration” value ([3]; Challenged/Dex group (n = 12)) was 0.011(0.009-0.017) mmol/mmol creatinine. For the same compound, the “urine 3-OH-3-Methyl-Glutarate concentration” value ([3]; Challenged/Dex group (n = 12)) was 0.010(0.006-0.014) mmol/mmol creatinine, the “urine 3-OH-Butyrate concentration” value ([3]; Challenged/Dex group (n = 12)) was 0.018(0.013-0.029) mmol/mmol creatinine and the “urine 4-Aminohippurate concentration” value ([3]; Challenged/Dex group (n = 12)) was 0.010(0.005-0.010) mmol/mmol creatinine. For the same compound, the “urine 4-OH-Phenylacetate concentration” value ([3]; Challenged/Dex group (n = 12)) was 0.122(0.068-0.196) mmol/mmol creatinine, the “urine 4-Pyridoxate concentration” value ([3]; Challenged/Dex group (n = 12)) was 0.009(0.005-0.010) mmol/mmol creatinine and the “urine Acetate concentration” value ([3]; Challenged/Dex group (n = 12)) was 0.118(0.081-0.203) mmol/mmol creatinine. For the same compound, the “urine Acetoacetate concentration” value ([3]; Challenged/Dex group (n = 12)) was 0.007(0.005-0.010) mmol/mmol creatinine, the “urine Acetone concentration” value ([3]; Challenged/Dex group (n = 12)) was 0.005(0.003-0.009) mmol/mmol creatinine and the “urine Adenosine concentration” value ([3]; Challenged/Dex group (n = 12)) was 0(0-0.001) mmol/mmol creatinine. The “urine Carnitine concentration” value ([3]; Challenged/Dex group (n = 12)) was 0.010(0.010-0.015) mmol/mmol creatinine, the “urine Creatine concentration” value ([3]; Challenged/Dex group (n = 12)) was 0.026(0.016-0.033) mmol/mmol creatinine and the “urine Dimethylamine concentration” value ([3]; Challenged/Dex group (n = 12)) was 0.122(0.103-0.146) mmol/mmol creatinine. For the same compound, the “urine Glucose concentration” value ([3]; Challenged/Dex group (n = 12)) was 0.155(0.100-0.334) mmol/mmol creatinine, the “urine Isobutyrate concentration” value ([3]; Challenged/Dex group (n = 12)) was 0(0-0) mmol/mmol creatinine and the “urine Kynurenate concentration” value ([3]; Challenged/Dex group (n = 12)) was 0.006(0.004-0.008) mmol/mmol creatinine. The “urine Malonate concentration” value ([3]; Challenged/Dex group (n = 12)) was 0.014(0.010-0.018) mmol/mmol creatinine, the “urine Methylamine concentration” value ([3]; Challenged/Dex group (n = 12)) was 0.033(0.026-0.069) mmol/mmol creatinine and the “urine Myolnositol concentration” value ([3]; Challenged/Dex group (n = 12)) was 0.035(0.020-0.080) mmol/mmol creatinine. The “urine Oxalacetate concentration” value ([3]; Challenged/Dex group (n = 12)) was 0.249(0.197-0.323) mmol/mmol creatinine, the “urine Phenylacetylglycine concentration” value ([3]; Challenged/Dex group (n = 12)) was 0.140(0.095-0.213) mmol/mmol creatinine and the “urine Phenylalanine concentration” value ([3]; Challenged/Dex group (n = 12)) was 0.022(0.016-0.042) mmol/mmol creatinine. For the same compound, the “urine Sarcosine concentration” value ([3]; Challenged/Dex group (n = 12)) was 0.010(0.007-0.016) mmol/mmol creatinine, the “urine Succinate concentration” value ([3]; Challenged/Dex group (n = 12)) was 0.006(0.005-0.008) mmol/mmol creatinine and the “urine Trigonelline concentration” value ([3]; Challenged/Dex group (n = 12)) was 0.069(0.063-0.091) mmol/mmol creatinine. The “urine Trimethyl-N-Oxide concentration” value ([3]; Challenged/Dex group (n = 12)) was 0.045(0.027-0.062) mmol/mmol creatinine, the “urine Tyrosine concentration” value ([3]; Challenged/Dex group (n = 12)) was 0.024(0.016-0.032) mmol/mmol creatinine and the “urine Fumarate concentration” value ([3]; Challenged/Dex group (n = 12)) was 0(0-0) mmol/mmol creatinine. For the same compound, the “urine Glycolate concentration” value ([3]; Challenged/Dex group (n = 12)) was 0(0-0) mmol/mmol creatinine, the “urine Trimethylamine concentration” value ([3]; Challenged/Dex group (n = 12)) was 0(0-0) mmol/mmol creatinine and the “urine 1-Methyl-Histamine concentration” value ([3]; Control/Dex group (n = 4)) was 0.015(0.008-0.023) mmol/mmol creatinine. For the same compound, the “urine 2-OH-Isobutyrate concentration” value ([3]; Control/Dex group (n = 4)) was 0.043(0.038-0.045) mmol/mmol creatinine, the “urine 2-Oxoglutarate concentration” value ([3]; Control/Dex group (n = 4)) was 0.004(0.003-0.005) mmol/mmol creatinine and the “urine 3-Methyl-Adipate concentration” value ([3]; Control/Dex group (n = 4)) was 0.015(0.008-0.018) mmol/mmol creatinine. For the same compound, the “urine 3-OH-3-Methyl-Glutarate concentration” value ([3]; Control/Dex group (n = 4)) was 0.004(0.003-0.005) mmol/mmol creatinine, the “urine 3-OH-Butyrate concentration” value ([3]; Control/Dex group (n = 4)) was 0.041(0.029-0.048) mmol/mmol creatinine and the “urine 4-Aminohippurate concentration” value ([3]; Control/Dex group (n = 4)) was 0.090(0.040-0.115) mmol/mmol creatinine. The “urine 4-OH-Phenylacetate concentration” value ([3]; Control/Dex group (n = 4)) was 0.101(0.095-0.130) mmol/mmol creatinine, the “urine 4-Pyridoxate concentration” value ([3]; Control/Dex group (n = 4)) was 0.004(0.003-0.005) mmol/mmol creatinine and the “urine Acetate concentration” value ([3]; Control/Dex group (n = 4)) was 0.137(0.098-0.180) mmol/mmol creatinine. For the same compound, the “urine Acetoacetate concentration” value ([3]; Control/Dex group (n = 4)) was 0.011(0.009-0.012) mmol/mmol creatinine, the “urine Acetone concentration” value ([3]; Control/Dex group (n = 4)) was 0.004(0.003-0.005) mmol/mmol creatinine and the “urine Adenosine concentration” value ([3]; Control/Dex group (n = 4)) was 0.002(0-0.003) mmol/mmol creatinine. The “urine Carnitine concentration” value ([3]; Control/Dex group (n = 4)) was 0.140(0.120-0.175) mmol/mmol creatinine, the “urine Creatine concentration” value ([3]; Control/Dex group (n = 4)) was 0.039(0.035-0.045) mmol/mmol creatinine and the “urine Dimethylamine concentration” value ([3]; Control/Dex group (n = 4)) was 0.096(0.087-0.110) mmol/mmol creatinine. For the same compound, the “urine Isobutyrate concentration” value ([3]; Control/Dex group (n = 4)) was 0(0-0.50) mmol/mmol creatinine, the “urine Kynurenate concentration” value ([3]; Control/Dex group (n = 4)) was 0.005(0.004-0.010) mmol/mmol creatinine and the “urine Malonate concentration” value ([3]; Control/Dex group (n = 4)) was 0.016(0.011-0.020) mmol/mmol creatinine. The “urine Methylamine concentration” value ([3]; Control/Dex group (n = 4)) was 0.009(0.009-0.014) mmol/mmol creatinine, the “urine Myolnositol concentration” value ([3]; Control/Dex group (n = 4)) was 0.410(0.380-0.570) mmol/mmol creatinine and the “urine Oxalacetate concentration” value ([3]; Control/Dex group (n = 4)) was 0.237(0.228-0.247) mmol/mmol creatinine. For the same compound, the “urine Phenylacetylglycine concentration” value ([3]; Control/Dex group (n = 4)) was 0.024(0.022-0.026) mmol/mmol creatinine, the “urine Phenylalanine concentration” value ([3]; Control/Dex group (n = 4)) was 0.011(0.009-0.013) mmol/mmol creatinine and the “urine Sarcosine concentration” value ([3]; Control/Dex group (n = 4)) was 0.004(0.003-0.005) mmol/mmol creatinine. For the same compound, the “urine Succinate concentration” value ([3]; Control/Dex group (n = 4)) was 0.013(0.011-0.014) mmol/mmol creatinine, the “urine Succinylacetone concentration” value ([3]; Control/Dex group (n = 4)) was 0.004(0.003-0.005) mmol/mmol creatinine and the “urine Trigonelline concentration” value ([3]; Control/Dex group (n = 4)) was 0.053(0.044-0.059) mmol/mmol creatinine. For the same compound, the “urine Trimethyl-N-Oxide concentration” value ([3]; Control/Dex group (n = 4)) was 0.089(0.076-0.107) mmol/mmol creatinine, the “urine Tyrosine concentration” value ([3]; Control/Dex group (n = 4)) was 0.027(0.016-0.042) mmol/mmol creatinine and the “urine Fumarate concentration” value ([3]; Control/Dex group (n = 4)) was 0(0-0) mmol/mmol creatinine. The “urine Glycolate concentration” value ([3]; Control/Dex group (n = 4)) was 0(0-0) mmol/mmol creatinine, the “urine Trimethylamine concentration” value ([3]; Control/Dex group (n = 4)) was 0(0-0) mmol/mmol creatinine and the urine phenylacetylglycine level ([3]; challenged animals after dexamethasone treatment) was “returned to control levels”. For the same compound, the urine sarcosine level ([3]; challenged guinea pig after steroid treatment) was “decreased”, the “urine metabolite profile by PLS-DA” value ([3]; challenged vs challengeddex, control vs controldex) was “altered urine metabolite profile” and the urine myo-inositol level ([3]; challengeddex among guinea pig groups) was “highest”. The “urinary excretion of 2-hydroxyisobutyrate” value ([3]; challengeddex vs challenged) was “levels rose”, the “urinary excretion of glucose” value ([3]; challengeddex vs challenged) was “levels rose” and the urine phenylacetylglycine level ([3]; dexamethasone-treated controls vs control) was “significantly lower levels”. For the same compound, the “eosinophils in cartilaginous airways” value (guinea pigs [4]) was “remained similar to challenged”.

— patent US20110238319A1, “METHOD OF DIAGNOSING A RESPIRATORY DISEASE” (priority 2008, published 2011)
